Data as given in patent US11767286B2, “Phenylpropionate compound, preparation method for same, and applications thereof” (SUZHOU PHARMAVAN CO., LTD, priority 2017, dated 2023).

How the values were obtained:
[1] = tested on: SD rat model of focal ischemia-reperfusion; assay: Pharmacodynamic (administration) time window in SD rat model of focal ischemia-reperfusion (MCAO); type: in vivo, SD rats; conditions: for Score of Symptoms of Neurological Deficits: 48 h, modified Bederson 5-point scale; for Infarction area: evaluated after 48 h, mean ± standard error
Procedure: In this example, Compound A was measured for a pharmacodynamic time window by a method described below.
(§1) Trial method: A cerebral ischemia reperfusion model of middle cerebral artery occlusion (MCAO) was prepared by an internal carotid artery suture method. An animal was anesthetized with 10% chloral hydrate (3.6 mL/kg) and then fixed on an operating table in a supine position. Its skin was disinfected, and a midline incision was made on the neck. The right common carotid artery, external carotid artery, and internal carotid artery were separated, the vagus nerve was gently striped off, and the external carotid artery was ligated and cut. The common carotid artery was clamped at the proximal end. […] The nylon thread was advanced through the bifurcation of the common carotid artery into the internal carotid artery, and then was slowly inserted until there was slight resistance (about 20 mm from the bifurcation) to block all the blood supply to the middle cerebral artery. 2 h after cerebral ischemia, the nylon thread was gently pulled out to restore blood supply for reperfusion, and the neck skin was sutured and disinfected. The animal was put back in a cage and raised. During the modeling operation, animals with abnormal conditions due to anesthesia, surgery, etc. were excluded, and successfully modeled animals were randomly grouped. Schemes were set according to trial doses, and drug treatment was given 3 h, 4 h, and 5 h after cerebral ischemia-reperfusion. Death conditions were recorded every day after the surgery, and indicators were evaluated after 48 h. In the whole trial process, general conditions were observed, mainly including: death, coma, breathing, urine and feces traits, hair colors, mental status, vomiting and vomitus, bleeding, convulsion, spasm, etc. Abnormal animals due to unexpected factors were excluded. Finally, unblinding was conducted by a person who made blind trials.
(§2) Evaluated indicator: (1) Evaluation of symptoms of neurological deficits: The symptoms of neurological deficits were evaluated by using a modified Bederson 5-point scale. A single-blind method was used for evaluating the symptoms of neurological deficits in rats with brain trauma. That is, a trial designer marked animals in accordance with groups, and an experimenter who scored the symptoms of neurological deficits had no knowledge of how the animals were grouped. After scoring was completed, the scorer submitted scoring results for various marks to the designer, and the designer performed unblinding to obtain scores of animals in each trial group. (2) Measurement of cerebral infarction area: A method reported in the literature was used. An animal was anesthetized with 10% chloral hydrate and decapitated to collect brain. The olfactory bulb, cerebellum and lower brain stem were removed. Blood stains on the surface of the brain were rinsed with normal saline, the residual water stains on the surface were absorbed, and the brain was placed at −80° C. for 7 min. After the brain was taken out, a coronal section was immediately made at downwards and vertical to the sight intersection plane, and brain slices were made every 2 mm backwards. Brain slices were placed in a TTC (20 g/L) dye solution prepared with 0.9% normal saline, and incubated at 37° C. for 90 min. Normal brain tissues were stained deep red, and ischemic brain tissues were pale-white. After rinsed with normal saline, the brain sections were quickly arranged in order from front to back, the residual water stains on the surface were absorbed to dryness, and pictures were taken. Image analysis software was used for statistics on the pictures. Ischemic area (white region) on the right side and total area on the right side were delineated, and a percentage of the cerebral infarction area was calculated by the following formula: […]
Statistical analysis: Quantitative data is expressed as mean value±standard error. […]

[2] = tested on: SD rat model of focal ischemia-reperfusion; assay: Dose-effect relationship in SD rat model of focal ischemia-reperfusion (MCAO); type: in vivo, SD rats; conditions: given 2 h after reperfusion, mean ± standard error; for Score of Symptoms of Neurological Deficits: 48 h, modified Bederson 5-point scale; for Infarction area: evaluated after 48 h
Procedure: In this example, phenylpropionate compounds were studied for dose-effect relationship, with D-bornyl ferulate (administrated at 4.0 mg/kg) and D-tanshinol borneol ester (administrated at 4.0 mg/kg) as positive control drugs. Structures of D-bornyl ferulate (Patent Application No.: 201510243181.5) and D-tanshinol borneol ester compounds are as follows:
as §1, with “according to different trial doses,” for “according to trial doses,”, “was given 2 h after” for “was given 3 h, 4 h, and 5 h after”
as §2, with “pictures.” for “pictures. Ischemic area (white region) on the right side and total area on the right side were delineated, and a percentage of the cerebral infarction area was calculated by the following formula:”

[3] = drug given 3 h after reperfusion
[4] = drug given 4 h after reperfusion
[5] = drug given 5 h after reperfusion

**Q.** With `COc1cc(CCC(=O)O[C@H]2C[C@H]3CC[C@]2(C)C3(C)C)cc(F)c1O` [Compound A] as the compound, how does the treatment time window ([1]; after ischemia (2 h ischemia then reperfusion)) read?
**A.** not less than 6 h

**Q.** What about the “Score of Symptoms of Neurological Deficits” value [1, 3] of the same compound?
**A.** 2.04 ± 0.12

**Q.** And the Infarction area [1, 3]?
**A.** 23.56 ± 2.86 %

**Q.** And the “Score of Symptoms of Neurological Deficits” value [1, 4]?
**A.** 2.13 ± 0.14

**Q.** And the Infarction area [1, 4]?
**A.** 24.54 ± 2.53 %

**Q.** And the “Score of Symptoms of Neurological Deficits” value [1, 5]?
**A.** 2.42 ± 0.17

**Q.** And the Infarction area [1, 5]?
**A.** 32.43 ± 2.13%

**Q.** What about the “Score of Symptoms of Neurological Deficits” value ([2]; 2.0 mg/kg) of the same compound?
**A.** 2.05 ± 0.20

**Q.** What about the Infarction area ([2]; 2.0 mg/kg) of the same compound?
**A.** 24.73 ± 2.63 %

**Q.** And the “Score of Symptoms of Neurological Deficits” value ([2]; 4.0 mg/kg)?
**A.** 1.94 ± 0.19

**Q.** What about the Infarction area ([2]; 4.0 mg/kg) of the same compound?
**A.** 20.25 ± 2.53 %

**Q.** And the “Score of Symptoms of Neurological Deficits” value ([2]; 8.0 mg/kg)?
**A.** 1.75 ± 0.21

**Q.** What about the Infarction area ([2]; 8.0 mg/kg) of the same compound?
**A.** 18.38 ± 2.74 %

**Q.** With `COc1cc(CCC(=O)O[C@H]2C[C@H]3CC[C@]2(C)C3(C)C)cc(OC)c1O` [Compound C] as the compound, how does the “Score of Symptoms of Neurological Deficits” value ([2]; 2.0 mg/kg) read?
**A.** 2.45 ± 0.13

**Q.** What about the Infarction area ([2]; 2.0 mg/kg) of the same compound?
**A.** 22.24 ± 2.84 %

**Q.** What about the “Score of Symptoms of Neurological Deficits” value ([2]; 4.0 mg/kg) of the same compound?
**A.** 2.18 ± 0.23

**Q.** What about the Infarction area ([2]; 4.0 mg/kg) of the same compound?
**A.** 21.04 ± 2.14 %

**Q.** What about the “Score of Symptoms of Neurological Deficits” value ([2]; 8.0 mg/kg) of the same compound?
**A.** 1.98 ± 0.14

**Q.** And the Infarction area ([2]; 8.0 mg/kg)?
**A.** 19.32 ± 3.53 %
